Measurements from ChEMBL document CHEMBL1201862, “PubChem BioAssay data set” (2004).
Calls of active or inactive are those of the source.

Tests used:
[1] = molecular target: Glucose-6-phosphate 1-dehydrogenase (Homo sapiens, UniProt P11413); test: inhibition of Homo sapiens G6PD, dose series – biochemical, fluorescence, selectivity assay for P. falciparum G6PD inhibitor project, dose response (AID 504792); assay type: functional
[2] = tested on: Escherichia coli; test: microbe, parasite or virus in culture
[3] = HGIII-sPLA2 enzyme inhibition potency – biochemical, QFRET, IC50, dose response (AID 743457);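 also: green fluorescence rise as the enzyme cleaves BODIPY PC-A2 in liposomes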
[4] = tested on: Vero; test: cells; assay type: functional, cell-based; conditions: Chlorocebus sabaeus
[5] = molecular target: T1, Short transient receptor potential channel 4 (Mus musculus, UniProt Q9QUQ5); test: calcium entry via TRPC4 opening agents – cell-based, HEK293 TRPC4/mu-opioid, Fluo-4 calcium, dose response (AID 434937); assay type: functional
T1 sequence (Q9QUQ5 whole entry): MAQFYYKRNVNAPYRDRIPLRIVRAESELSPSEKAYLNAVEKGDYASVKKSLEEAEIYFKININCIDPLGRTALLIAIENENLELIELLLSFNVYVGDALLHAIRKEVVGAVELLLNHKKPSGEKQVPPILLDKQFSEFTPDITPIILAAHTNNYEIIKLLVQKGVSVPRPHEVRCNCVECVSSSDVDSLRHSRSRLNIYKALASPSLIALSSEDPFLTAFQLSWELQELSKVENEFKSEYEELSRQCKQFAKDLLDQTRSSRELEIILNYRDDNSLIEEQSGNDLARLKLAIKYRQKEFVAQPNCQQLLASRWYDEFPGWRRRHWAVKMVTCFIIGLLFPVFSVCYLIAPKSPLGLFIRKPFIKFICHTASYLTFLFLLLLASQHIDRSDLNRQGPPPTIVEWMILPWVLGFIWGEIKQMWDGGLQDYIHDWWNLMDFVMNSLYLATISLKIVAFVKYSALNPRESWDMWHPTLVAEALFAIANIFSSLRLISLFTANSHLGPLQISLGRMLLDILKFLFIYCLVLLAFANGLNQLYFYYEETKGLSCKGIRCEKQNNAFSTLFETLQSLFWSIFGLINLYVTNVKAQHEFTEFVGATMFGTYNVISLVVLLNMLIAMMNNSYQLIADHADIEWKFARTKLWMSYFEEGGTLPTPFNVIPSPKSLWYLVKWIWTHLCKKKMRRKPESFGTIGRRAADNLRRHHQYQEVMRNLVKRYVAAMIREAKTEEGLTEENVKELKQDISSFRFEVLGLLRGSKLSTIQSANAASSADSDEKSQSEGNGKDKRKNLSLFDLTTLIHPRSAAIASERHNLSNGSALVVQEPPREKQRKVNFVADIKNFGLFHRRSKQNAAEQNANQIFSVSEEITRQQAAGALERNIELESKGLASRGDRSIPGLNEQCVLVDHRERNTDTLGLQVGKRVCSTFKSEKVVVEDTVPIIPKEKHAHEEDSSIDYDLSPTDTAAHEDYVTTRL

[6] = tested on: Vero; test: cells; assay type: functional; conditions: Chlorocebus sabaeus
[7] = tested on: Escherichia coli; test: microbe, parasite or virus in culture; remark: listed apart in the source
[8] = Luminescence Cell-Based Dose Retest to Confirm Inhibitors of Cancer Stem Cells. [Related pubchem assays (depositor defined):AID2717, AID2721]; assay type: functional; conditions: Homo sapiens
[9] = MIN6 cell viability loss – mouse insulinoma, cytotoxicity control, dose response (AID 2122); assay type: functional;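 also: confirmatory high-throughput counterscreen run to flag cytotoxic compounds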
[10] = decrease of insulin promoter-GFP reporter – imaging, high-content screening, mouse beta cells (AID 1628); assay type: functional; conditions: MIN6
[11] = viability loss of HMLE_sh_eGFP cells – cell-based, luminescence, counter-screen for HMLE_sh_ECad selective toxicity project, dose response (AID 463074); assay type: functional, Homo sapiens;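 also: HMLE human mammary epithelial cells expressing control shRNA against eGFP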
[12] = Trypanosoma cruzi growth suppression in host cells – NIH3T3 host cells, beta-gal luminescence, confirmation (AID 2044); assay type: functional, cell-based;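 also: intracellular parasites grown in NIH/3T3 mouse fibroblasts as host cells; luminescent beta-galactosidase reporter signal from transgenic T. cruzi replicating inside host cells; inhibitors lower the luminescence signal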
[13] = NIH3T3 cell viability loss – ATP luminescence, mouse fibroblasts, counter-screen, dose response (AID 2010); assay type: functional, cell-based;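 also: cells exposed to compound for about 90 hours before reading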
[14] = molecular target: CAAX prenyl protease 1 (Saccharomyces cerevisiae S288c, UniProt P47154); test: yeast CAAX protease Ste24 inhibition – biochemical, S. cerevisiae, plate reader, cherry-pick, dose response (AID 488815)
Chain of CAAX prenyl protease 1 (P47154 whole entry): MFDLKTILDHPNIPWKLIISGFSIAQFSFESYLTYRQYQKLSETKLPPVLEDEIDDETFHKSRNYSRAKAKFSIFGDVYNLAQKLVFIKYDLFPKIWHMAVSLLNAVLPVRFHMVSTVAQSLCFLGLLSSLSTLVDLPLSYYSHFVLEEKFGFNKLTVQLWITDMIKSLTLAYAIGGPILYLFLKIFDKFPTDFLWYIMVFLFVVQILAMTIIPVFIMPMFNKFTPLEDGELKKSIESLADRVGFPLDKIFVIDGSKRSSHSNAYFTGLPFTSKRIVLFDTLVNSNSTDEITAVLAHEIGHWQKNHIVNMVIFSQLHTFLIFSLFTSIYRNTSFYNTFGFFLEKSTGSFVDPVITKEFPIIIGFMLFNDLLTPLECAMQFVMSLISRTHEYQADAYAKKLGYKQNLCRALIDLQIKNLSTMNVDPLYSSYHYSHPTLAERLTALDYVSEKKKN

[15] = molecular target: Trypsin (Sus scrofa, UniProt P00761); test: trypsin protease activity blockade – biochemical, quenched peptide fluorescence, cherry-pick, selectivity assay for Rce1 protease inhibitor project, dose response (AID 488789)
Chain of Trypsin (P00761 whole entry): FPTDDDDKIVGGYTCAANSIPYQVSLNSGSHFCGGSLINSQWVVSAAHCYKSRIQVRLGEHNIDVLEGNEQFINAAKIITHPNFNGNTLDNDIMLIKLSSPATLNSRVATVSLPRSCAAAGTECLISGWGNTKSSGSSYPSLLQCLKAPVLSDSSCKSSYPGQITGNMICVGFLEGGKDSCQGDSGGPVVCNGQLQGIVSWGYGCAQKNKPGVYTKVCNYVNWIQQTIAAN

[16] = molecular target: T2, CAAX prenyl protease 2 (Saccharomyces cerevisiae S288c, UniProt Q03530); assay type: biochemical
T2 sequence (Q03530 whole entry): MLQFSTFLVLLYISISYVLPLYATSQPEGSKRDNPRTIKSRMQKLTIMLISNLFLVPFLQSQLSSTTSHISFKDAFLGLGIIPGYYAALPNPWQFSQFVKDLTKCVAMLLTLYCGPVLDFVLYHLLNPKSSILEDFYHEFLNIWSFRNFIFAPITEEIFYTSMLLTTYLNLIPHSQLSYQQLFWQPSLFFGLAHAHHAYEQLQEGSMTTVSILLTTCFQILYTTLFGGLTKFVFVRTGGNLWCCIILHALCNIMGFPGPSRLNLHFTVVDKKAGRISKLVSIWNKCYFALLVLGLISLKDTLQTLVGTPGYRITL

[17] = molecular target: DNA dC->dU-editing enzyme APOBEC-3A (Homo sapiens, UniProt P31941); test: A3A deaminase inhibition for selectivity – biochemical, dose response (AID 504722); assay type: functional
Chain of DNA dC->dU-editing enzyme APOBEC-3A (P31941 whole entry): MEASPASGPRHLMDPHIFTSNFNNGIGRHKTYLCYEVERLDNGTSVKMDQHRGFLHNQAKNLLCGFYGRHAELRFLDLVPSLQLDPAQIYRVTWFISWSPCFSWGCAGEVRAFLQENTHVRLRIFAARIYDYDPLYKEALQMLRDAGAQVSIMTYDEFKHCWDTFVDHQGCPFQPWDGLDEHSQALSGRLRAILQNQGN

[18] = molecular target: T3, Mannose-6-phosphate isomerase (Homo sapiens, UniProt P34949); test: phosphomannose isomerase inhibition – biochemical, fluorescence intensity, confirmation (AID 1535)
T3 sequence (P34949 whole entry): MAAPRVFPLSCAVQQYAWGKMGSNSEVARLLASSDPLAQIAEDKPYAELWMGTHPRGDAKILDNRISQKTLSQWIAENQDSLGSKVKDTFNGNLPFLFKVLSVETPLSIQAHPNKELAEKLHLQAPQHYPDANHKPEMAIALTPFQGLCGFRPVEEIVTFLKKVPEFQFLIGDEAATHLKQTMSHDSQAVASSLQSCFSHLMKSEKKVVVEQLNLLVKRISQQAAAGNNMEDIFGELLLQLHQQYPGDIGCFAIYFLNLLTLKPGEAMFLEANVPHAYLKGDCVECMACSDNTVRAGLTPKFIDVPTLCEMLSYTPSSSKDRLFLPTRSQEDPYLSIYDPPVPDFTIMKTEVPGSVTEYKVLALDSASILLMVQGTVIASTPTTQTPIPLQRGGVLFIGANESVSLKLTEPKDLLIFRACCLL

[19] = molecular target: Phosphomannomutase 2 (Homo sapiens, UniProt O15305); test: Counter screen SAR assay for PMM2 inhibitors via a fluorescence intensity assay. [Related pubchem assays (depositor defined):AID1545, AID1574]
Chain of Phosphomannomutase 2 (O15305 whole entry): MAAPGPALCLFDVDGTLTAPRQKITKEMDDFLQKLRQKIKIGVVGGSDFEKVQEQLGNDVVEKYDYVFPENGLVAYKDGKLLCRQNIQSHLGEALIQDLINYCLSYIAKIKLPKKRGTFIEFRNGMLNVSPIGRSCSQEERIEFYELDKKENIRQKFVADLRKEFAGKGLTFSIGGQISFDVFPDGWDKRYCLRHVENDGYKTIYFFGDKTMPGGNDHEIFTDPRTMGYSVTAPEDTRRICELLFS

[20] = molecular target: DNA dC->dU-editing enzyme APOBEC-3G (Homo sapiens, UniProt Q9HC16); test: Dose Response confirmation of small molecule APOBEC3G DNA Deaminase Inhibitors via a fluorescence-based single-stranded DNA deaminase assay. [Related pubchem assays (depositor defined):AID493012, AID493028]; assay type: functional
Chain of DNA dC->dU-editing enzyme APOBEC-3G (Q9HC16 whole entry): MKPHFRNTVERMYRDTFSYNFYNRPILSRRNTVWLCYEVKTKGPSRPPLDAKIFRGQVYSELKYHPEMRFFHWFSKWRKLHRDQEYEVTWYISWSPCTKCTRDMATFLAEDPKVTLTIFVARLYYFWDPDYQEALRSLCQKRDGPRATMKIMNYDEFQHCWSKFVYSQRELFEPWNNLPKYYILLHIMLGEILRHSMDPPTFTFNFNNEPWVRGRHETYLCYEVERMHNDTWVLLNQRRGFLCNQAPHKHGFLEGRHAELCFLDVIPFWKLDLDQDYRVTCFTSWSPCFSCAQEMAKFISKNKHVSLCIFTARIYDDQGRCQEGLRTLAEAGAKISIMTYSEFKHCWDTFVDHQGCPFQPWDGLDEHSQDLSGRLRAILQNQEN

[21] = tested on: HEK293; test: cells; assay type: functional, cell-based; conditions: Homo sapiens
[22] = molecular target: T4, Nuclear receptor subfamily 0 group B member 1 (Homo sapiens, UniProt P51843); test: Luminescence-based cell-based high throughput dose response assay for inhibitors of the orphan nuclear receptor subfamily 0, group B, member 1 (DAX1; NR0B1). [Related pubchem assays (depositor defined):AID504766, AID504790]; assay type: functional
T4 sequence (P51843 whole entry): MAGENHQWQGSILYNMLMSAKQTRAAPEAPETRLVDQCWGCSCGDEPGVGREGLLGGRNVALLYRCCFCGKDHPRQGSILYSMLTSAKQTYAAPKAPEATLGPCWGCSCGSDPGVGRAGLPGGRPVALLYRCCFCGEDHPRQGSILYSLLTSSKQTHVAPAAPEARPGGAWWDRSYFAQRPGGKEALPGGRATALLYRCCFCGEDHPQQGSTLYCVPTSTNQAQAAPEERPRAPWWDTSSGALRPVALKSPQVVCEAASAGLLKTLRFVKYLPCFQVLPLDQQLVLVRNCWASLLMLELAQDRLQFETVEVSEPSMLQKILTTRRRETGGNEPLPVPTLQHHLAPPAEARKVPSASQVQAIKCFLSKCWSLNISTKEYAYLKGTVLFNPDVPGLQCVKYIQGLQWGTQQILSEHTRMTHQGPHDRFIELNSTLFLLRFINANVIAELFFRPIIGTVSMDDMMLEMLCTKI

[23] = molecular target: T5, Dual specificity protein phosphatase 6 (Rattus norvegicus, UniProt Q64346)
T5 sequence (Q64346 whole entry): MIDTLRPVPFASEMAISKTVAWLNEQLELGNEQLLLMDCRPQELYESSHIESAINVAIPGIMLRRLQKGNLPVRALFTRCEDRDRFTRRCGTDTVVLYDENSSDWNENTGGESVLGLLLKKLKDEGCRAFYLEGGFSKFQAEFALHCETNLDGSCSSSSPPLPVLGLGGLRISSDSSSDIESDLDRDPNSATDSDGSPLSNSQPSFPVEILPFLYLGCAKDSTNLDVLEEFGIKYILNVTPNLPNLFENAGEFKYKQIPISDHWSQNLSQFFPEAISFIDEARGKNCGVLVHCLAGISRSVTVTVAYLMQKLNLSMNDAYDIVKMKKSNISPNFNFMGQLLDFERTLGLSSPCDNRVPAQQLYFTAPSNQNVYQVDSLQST

[24] = molecular target: T6, Tyrosine-protein phosphatase non-receptor type 7 (Homo sapiens, UniProt P35236); assay type: functional
T6 sequence (P35236 whole entry): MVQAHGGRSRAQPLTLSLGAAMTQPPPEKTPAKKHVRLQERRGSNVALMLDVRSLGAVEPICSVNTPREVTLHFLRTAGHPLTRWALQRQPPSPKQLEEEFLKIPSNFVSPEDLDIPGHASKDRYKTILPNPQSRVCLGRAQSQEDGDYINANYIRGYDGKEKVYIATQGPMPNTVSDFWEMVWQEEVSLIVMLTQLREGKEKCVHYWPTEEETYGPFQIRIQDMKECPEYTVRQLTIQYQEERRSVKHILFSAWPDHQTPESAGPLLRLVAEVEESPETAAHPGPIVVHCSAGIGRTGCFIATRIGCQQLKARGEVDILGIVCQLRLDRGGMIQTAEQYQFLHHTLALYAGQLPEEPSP

[25] = molecular target: Glyceraldehyde-3-phosphate dehydrogenase (Homo sapiens, UniProt P04406)
Chain of Glyceraldehyde-3-phosphate dehydrogenase (P04406 whole entry): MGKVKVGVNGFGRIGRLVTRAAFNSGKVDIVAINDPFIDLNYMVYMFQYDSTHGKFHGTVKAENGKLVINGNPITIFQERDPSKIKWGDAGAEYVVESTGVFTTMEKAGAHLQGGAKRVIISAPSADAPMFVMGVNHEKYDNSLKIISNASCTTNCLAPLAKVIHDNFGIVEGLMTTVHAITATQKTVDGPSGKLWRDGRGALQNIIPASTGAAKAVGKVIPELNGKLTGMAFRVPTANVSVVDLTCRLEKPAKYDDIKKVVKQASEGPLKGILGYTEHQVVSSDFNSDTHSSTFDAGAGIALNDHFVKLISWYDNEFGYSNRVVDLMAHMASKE

[26] = molecular target: T7, E3 ubiquitin-protein ligase XIAP (Homo sapiens, UniProt P98170); test: small molecules displacing peptide from XIAP – biochemical, IAP family, fluorescence polarization (AID 1018); assay type: functional
T7 sequence (P98170 whole entry): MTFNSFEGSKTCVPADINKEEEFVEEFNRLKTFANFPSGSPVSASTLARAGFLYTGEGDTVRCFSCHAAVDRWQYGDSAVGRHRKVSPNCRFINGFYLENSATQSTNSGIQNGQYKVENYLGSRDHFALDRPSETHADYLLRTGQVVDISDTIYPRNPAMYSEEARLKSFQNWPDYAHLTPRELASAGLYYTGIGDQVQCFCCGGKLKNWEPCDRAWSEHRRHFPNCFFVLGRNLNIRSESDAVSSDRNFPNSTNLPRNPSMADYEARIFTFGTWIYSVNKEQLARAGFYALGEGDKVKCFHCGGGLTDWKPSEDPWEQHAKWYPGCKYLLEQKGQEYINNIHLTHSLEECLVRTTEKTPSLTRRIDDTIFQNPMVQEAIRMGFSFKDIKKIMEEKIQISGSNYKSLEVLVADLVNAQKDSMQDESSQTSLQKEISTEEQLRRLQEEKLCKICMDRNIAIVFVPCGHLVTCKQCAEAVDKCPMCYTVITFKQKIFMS

[27] = molecular target: T7, E3 ubiquitin-protein ligase XIAP; test: Counter Screen using XIAP-Bir3 for Chemical Antagonists of Bir1/2 domains of IAP-family anti-apoptotic proteins. [Related pubchem assays (depositor defined):AID1018, AID1449, AID1514, AID1638, AID1749, AID1750, AID488957, AID488963]
[28] = molecular target: T5, Dual specificity protein phosphatase 6; assay type: functional

Chain of Glucose-6-phosphate 1-dehydrogenase (P11413 whole entry): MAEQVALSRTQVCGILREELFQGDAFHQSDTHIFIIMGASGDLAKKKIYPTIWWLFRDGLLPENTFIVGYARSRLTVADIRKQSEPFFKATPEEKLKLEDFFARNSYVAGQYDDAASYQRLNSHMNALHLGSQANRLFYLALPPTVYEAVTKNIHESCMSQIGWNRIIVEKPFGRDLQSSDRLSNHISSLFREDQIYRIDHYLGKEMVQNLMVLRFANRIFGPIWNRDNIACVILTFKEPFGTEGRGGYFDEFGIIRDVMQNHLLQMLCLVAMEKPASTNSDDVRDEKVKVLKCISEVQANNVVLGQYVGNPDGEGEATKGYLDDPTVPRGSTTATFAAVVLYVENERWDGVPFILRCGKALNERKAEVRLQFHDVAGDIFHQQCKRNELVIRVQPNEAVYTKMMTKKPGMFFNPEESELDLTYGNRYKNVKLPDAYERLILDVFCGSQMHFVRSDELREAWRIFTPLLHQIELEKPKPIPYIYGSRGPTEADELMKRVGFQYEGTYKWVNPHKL

Question: With `C=CCOc1c(Cl)cc(CNc2ccc3[nH]c(O)nc3c2)cc1OC` as the compound, how does the IC50 [1] read?
Answer: > 80 µM (inactive)

Question: For `Cc1ccc(-c2[nH]nc3c2C(c2ccccc2)N(c2ccc(C(=O)O)cc2)C3=O)cc1` (stereo unspecified), which AC50 [2] is on record?
Answer: 35.3 µM (active)

Question: Which IC50 [3] does the source give for `COc1ccc(C(=O)NC(=S)NNC(=O)c2cccc(C)c2)cc1` here?
Answer: 75.7 µM (inactive)

Question: And the IC50 [4]?
Answer: 23.7 µM (active)

Question: What about the EC50 [5] of the same compound?
Answer: 3.35 µM (active)

Question: And the CC50 [6]?
Answer: > 25 µM (active)

Question: Which AC50 [7] does the source give for `C/C=C(/C)C(=O)Nc1cccc(C2=NOC3(C2)C[C@H](C(N)=O)N(C(=O)c2ccc(Cl)cc2)C3)c1` (stereo partly specified) here?
Answer: 48 µM (active)

Question: With `COc1c(Cl)cc(Cl)cc1/C=C/C(=O)c1ccc(NC(=O)c2cccs2)cc1` as the compound, how does the AC50 [8] read?
Answer: 1.12 µM (active)

Question: And the IC50 [9]?
Answer: 1.35 µM (active)

Question: And the IC50 [10]?
Answer: 2.56 µM (active)

Question: For `Cc1ccc(P(=S)(c2ccc(C)o2)N2CCOCC2)o1`, which AC50 [8] is on record?
Answer: > 195 µM (inactive)

Question: And the AC50 [11]?
Answer: 78.2 µM (active)

Question: What does the source list for `CN1/C(=C/C(=S)NC(=O)C2(C)CC2(Cl)Cl)C(C)(C)c2ccccc21` (stereo unspecified)?
Answer: EC50 [12]: 3.4 µM (active); IC50 [9]: 0.851 µM (active); EC50 [13]: > 60 µM (not active); IC50 [10]: 2.5 µM (active)

Question: What does the source list for `CC(C)c1cc(=O)oc2c3c4c(cc12)CCCN4CCC3`?
Answer: AC50 [14]: 4 µM (active); AC50 [15]: 24.1 µM (active); AC50 [16]: > 100 µM (inactive)

Question: With `Cn1c(C(=O)N2CCCC(C(=O)NCCCSC3CCCCC3)C2)cc2sccc21` (stereo unspecified) as the compound, how does the AC50 [8] read?
Answer: 5.7 µM (active)

Question: What about the AC50 [11] of the same compound?
Answer: 21.6 µM (active)

Question: What does the source list for `COc1ccc(OC)c(/N=c2\ssnc2Cl)c1`?
Answer: IC50 [17]: > 100 µM (inactive); IC50 [18]: 4.35 µM (active); IC50 [19]: > 100 µM (inactive); IC50 [20]: 15.4 µM (active)

Question: With `Cc1ccc(/N=c2\ssnc2Cl)cc1[N+](=O)[O-]` as the compound, how does the IC50 [18] read?
Answer: 4.46 µM (active)

Question: What about the IC50 [19] of the same compound?
Answer: > 100 µM (inactive)

Question: What does the source list for `Cc1ccc2nc(-c3ccc(NC(=S)NCC(C)(C)CN(C)C)cc3)sc2c1`?
Answer: IC50 [21]: > 67.5 µM (inactive); IC50 [4]: 15.4 µM (active); IC50 [22]: > 67.5 µM (inactive)

Question: For `O=C(O)[C@@H](O)c1ccccc1`, which IC50 [23] is on record?
Answer: > 100 µM (inactive)

Question: And the IC50 [24]?
Answer: > 100 µM (not active)

Question: What about the IC50 [25] of the same compound?
Answer: > 100 µM (not active)

Question: What about the IC50 [26] of the same compound?
Answer: > 100 µM (not active)

Question: What about the IC50 [27] of the same compound?
Answer: > 100 µM (inactive)

Question: What about the IC50 [28] of the same compound?
Answer: > 100 µM (inactive)
